# Paper PMC8875074, “Development of Bactericidal Peptides against Multidrug-Resistant Acinetobacter baumannii with Enhanced Stability and Low Toxicity” (International Journal of Molecular Sciences, 2022)
# Read-outs that look alike come from different tables or passages of the source.
# Legend:
# [1] = system: A. baumannii (10591); assay: Induced resistance (serial passage) assay; type: cell-based, Acinetobacter baumannii; details: 15 cycles, from subinhibitory wells
# Description: A total of 50 µL of 10^6 CFU/mL bacterial cells were treated with different concentrations of peptide. Bacterial cells from subinhibitory wells were subcultured by passaging for 15 cycles, followed by testing their MIC values. The fold change in MIC was reported in comparison with starting MIC values.
# [2] = system: MDR A. baumannii 921; assay: Fractional inhibitory concentration (FIC) index assay; type: cell-based, Acinetobacter baumannii; details: strain 921
# Description: (§1) A 2-fold dilution of peptide in 50 µL of media was performed along the vertical axis of a 96-well plate. Similarly, 50 µL of the next drug was diluted 2-fold along the horizontal axis. Next, 50 µL of […] was added, and the standard MIC protocol was performed. The FIC index was calculated according to the following formula:FICI = FIC A + FIC B where FIC A is MIC A & B combined/MIC A and FIC B is MIC A & B combined/[…].
# [3] = system: MDR A. baumannii 2982; assay: as above; type: cell-based, Acinetobacter baumannii; details: strain 2982
# Description: as §1
# [4] = system: MDR A. baumannii 3618; assay: as above; type: cell-based, Acinetobacter baumannii; details: strain 3618
# Description: as §1
# [5] = system: MDR A. baumannii 2088; assay: as above; type: cell-based, Acinetobacter baumannii; details: strain 2088
# Description: as §1
# [6] = system: MDR A. baumannii 1607; assay: as above; type: cell-based, Acinetobacter baumannii; details: strain 1607
# Description: as §1
# [7] = system: MDR A. baumannii 2962; assay: as above; type: cell-based, Acinetobacter baumannii; details: strain 2962
# Description: as §1
# [8] = system: MDR A. baumannii 1702; assay: as above; type: cell-based, Acinetobacter baumannii; details: strain 1702
# Description: as §1
# [9] = system: MDR A. baumannii 14B001; assay: as above; type: cell-based, Acinetobacter baumannii; details: strain 14B001
# Description: as §1
# [10] = system: MDR A. baumannii 1019; assay: as above; type: cell-based, Acinetobacter baumannii; details: strain 1019
# Description: as §1
# [11] = system: MDR A. baumannii 2998; assay: as above; type: cell-based, Acinetobacter baumannii; details: strain 2998
# Description: as §1
# [12] = system: MDR A. baumannii 2997; assay: as above; type: cell-based, Acinetobacter baumannii; details: strain 2997
# Description: as §1
# [13] = system: MDR A. baumannii 1033; assay: as above; type: cell-based, Acinetobacter baumannii; details: strain 1033
# Description: as §1
# [14] = system: A. baumannii; assay: Peptide sensitivity to temperature (MIC/MBC after heating); type: cell-based, Acinetobacter baumannii
# Description: (§2) Bacterial cells Acinetobacter baumannii 10591 and 14B0091 were obtained from BCRC Taiwan. All the MDR strains were obtained from the hospital as gifts. The antimicrobial assay was performed as per the standard protocol; 50 µL of 10^6 CFU/mL of mid-log phase bacterial suspension was treated with 50 µL of candidate peptide and meropenem (Sigma: PHR1772) incubated at 37 °C for 960~1200 min. The clear wells corresponding to the lowest concentrations are reported as the minimum inhibitory concentration (MIC). Suspensions from the clear wells were plated on Mueller–Hinton agar (MHA) plates and incubated at 37 °C overnight. The lowest concentration corresponding to no growth was recorded as the minimum bactericidal concentration (MBC). To detect the effect of human serum (H3667, Sigma Aldrich, St. Louis, MO, USA) on the peptides, the media was replaced with 50% human serum-containing media. Similarly, to detect the effect of lung surfactant (SURVANTA®, beractant, AbbVie Inc., Lake Bluff, IL, USA (25 mg/mL)) on the antimicrobial activity of the peptide, the normal media was replaced with 5% lung surfactant-containing media. To analyse the bacterial killing kinetics, after the addition of the peptide to the bacterial suspension, 10 µL of broth was diluted 1000 times, plated at 30 min intervals, and allowed to incubate for 90 min. The bacterial load is expressed as CFU/mL as a function of time.
# Here, 50 µL of 10^6 CFU/mL bacterial cells were treated with peptide previously incubated at 40, 60, 80, and 100 °C for 1 h. The peptide activity was reported as per the standard MIC and MBC protocols.
# [15] = system: MDR A. baumannii 14B0091; assay: MIC/MBC antimicrobial assay; type: cell-based, Acinetobacter baumannii; details: MDR strain 14B0091, triplicate, two independent experiments
# Description: as §2
# [16] = system: A. baumannii 10591; assay: MIC/MBC antimicrobial assay; type: cell-based, Acinetobacter baumannii; details: for MBC: A. baumannii 10591 wild strain, triplicate, two independent experiments
# Description: as §2
# [17] = system: A. baumannii 10591; assay: Biofilm rupture assay; type: cell-based, Acinetobacter baumannii; details: at the lowest concentration (25 µg/mL)
# Description: For the biofilm inhibition assay, 106 bacterial cells were treated with peptide at various concentrations in MHB media containing 0.2% glucose for 24 h at 37 °C in 96-well plates. The wells were then washed with PBS, treated with 100% methanol for 15 min, and the washes were discarded. Crystal violet solution (0.02%) was added to the dry plates and incubated for 30 min. The wells were then washed and treated with 33% acetic acid, followed by detection at 595 nm. For the biofilm rupture assay, 106 bacterial cells were grown overnight. The residual liquid was discarded, followed by washing with PBS. Next, 100 µL of peptide at different concentrations was added as estimated according to the biofilm inhibition assay.
# [18] = system: MDR A. baumannii 921; assay: MIC/MBC antimicrobial assay; type: cell-based; details: Acinetobacter baumannii; MDR strain 921; normal media; triplicate, two independent experiments
# Description: as §2
# [19] = system: MDR A. baumannii 2982; assay: MIC/MBC antimicrobial assay; type: cell-based; details: Acinetobacter baumannii; MDR strain 2982; normal media; triplicate, two independent experiments
# Description: as §2
# [20] = system: MDR A. baumannii 3618; assay: MIC/MBC antimicrobial assay; type: cell-based; details: Acinetobacter baumannii; MDR strain 3618; normal media; triplicate, two independent experiments
# Description: as §2
# [21] = system: MDR A. baumannii 2088; assay: MIC/MBC antimicrobial assay; type: cell-based; details: Acinetobacter baumannii; MDR strain 2088; normal media; triplicate, two independent experiments
# Description: as §2
# [22] = system: MDR A. baumannii 1607; assay: MIC/MBC antimicrobial assay; type: cell-based; details: Acinetobacter baumannii; MDR strain 1607; normal media; triplicate, two independent experiments
# Description: as §2
# [23] = system: MDR A. baumannii 2962; assay: MIC/MBC antimicrobial assay; type: cell-based; details: Acinetobacter baumannii; MDR strain 2962; normal media; triplicate, two independent experiments
# Description: as §2
# [24] = system: MDR A. baumannii 1702; assay: MIC/MBC antimicrobial assay; type: cell-based; details: Acinetobacter baumannii; MDR strain 1702; normal media; triplicate, two independent experiments
# Description: as §2
# [25] = system: MDR A. baumannii 1019; assay: MIC/MBC antimicrobial assay; type: cell-based; details: Acinetobacter baumannii; MDR strain 1019; normal media; triplicate, two independent experiments
# Description: as §2
# [26] = system: MDR A. baumannii 2998; assay: MIC/MBC antimicrobial assay; type: cell-based; details: Acinetobacter baumannii; MDR strain 2998; normal media; triplicate, two independent experiments
# Description: as §2
# [27] = system: MDR A. baumannii 2997; assay: MIC/MBC antimicrobial assay; type: cell-based; details: Acinetobacter baumannii; MDR strain 2997; normal media; triplicate, two independent experiments
# Description: as §2
# [28] = system: MDR A. baumannii 1033; assay: MIC/MBC antimicrobial assay; type: cell-based; details: Acinetobacter baumannii; MDR strain 1033; normal media; triplicate, two independent experiments
# Description: as §2
# [29] = cited from earlier work
# From the text: A pair of test peptides, TP2-5 and TP2-6, were selected from a previous design based on tilapia piscidin 2 (TP2). […] Both TP2-5 and TP2-6 are nonhaemolytic and noncytotoxic an ...
# [30] = Acinetobacter baumannii, drug alone, two experiments in triplicate
# [31] = Acinetobacter baumannii, media containing 50% human serum, read-out: MBC
compound,measurement,setting,value
"C[C@@H](O)[C@H]1C(=O)N2C(C(=O)O)=C(S[C@@H]3CN[C@H](C(=O)N(C)C)C3)[C@H](C)[C@H]12 [Meropenem, meropenem]",increase in MIC versus the initial MIC value (fold),[1],up to 16 fold
same,MIC,[2]; [30],100 µg/mL
same,MIC in Combination,[2]; TP2-5 combined with meropenem,100 µg/mL
same,MIC in Combination,[2]; TP2-6 combined with meropenem,50 µg/mL
same,MIC,[3]; [30],100 µg/mL
same,MIC in Combination,[3]; TP2-5 combined with meropenem,100 µg/mL
same,MIC in Combination,[3]; TP2-6 combined with meropenem,100 µg/mL
same,MIC,[4]; [30],100 µg/mL
same,MIC in Combination,[4]; TP2-5 combined with meropenem,50 µg/mL
same,MIC in Combination,[4]; TP2-6 combined with meropenem,25 µg/mL
same,MIC,[5]; [30],200 µg/mL
same,MIC in Combination,[5]; TP2-5 combined with meropenem,100 µg/mL
same,MIC in Combination,[5]; TP2-6 combined with meropenem,100 µg/mL
same,MIC,[6]; [30],25 µg/mL
same,MIC in Combination,[6]; TP2-5 combined with meropenem,25 µg/mL
same,MIC in Combination,[6]; TP2-6 combined with meropenem,25 µg/mL
same,MIC,[7]; [30],50 µg/mL
same,MIC in Combination,[7]; TP2-5 combined with meropenem,25 µg/mL
same,MIC in Combination,[7]; TP2-6 combined with meropenem,25 µg/mL
same,MIC,[8]; [30],12.5 µg/mL
same,MIC in Combination,[8]; TP2-5 combined with meropenem,12.5 µg/mL
same,MIC in Combination,[8]; TP2-6 combined with meropenem,1.56 µg/mL
same,MIC,[9]; [30],400 µg/mL
same,MIC in Combination,[9]; TP2-5 combined with meropenem,200 µg/mL
same,MIC in Combination,[9]; TP2-6 combined with meropenem,200 µg/mL
same,MIC,[10]; [30],25 µg/mL
same,MIC in Combination,[10]; TP2-5 combined with meropenem,12.5 µg/mL
same,MIC in Combination,[10]; TP2-6 combined with meropenem,12.5 µg/mL
same,MIC,[11]; [30],200 µg/mL
same,MIC in Combination,[11]; TP2-5 combined with meropenem,200 µg/mL
same,MIC in Combination,[11]; TP2-6 combined with meropenem,100 µg/mL
same,MIC,[12]; [30],100 µg/mL
same,MIC in Combination,[12]; TP2-5 combined with meropenem,50 µg/mL
same,MIC in Combination,"[12]; TP2-6 combined with meropenem, first printed pair of the cells (before the slash)",50 µg/mL
same,MIC in Combination,"[12]; TP2-6 combined with meropenem, second printed pair of the cells (after the slash)",25 µg/mL
same,MIC,[13]; [30],50 µg/mL
same,MIC in Combination,[13]; TP2-5 combined with meropenem,50 µg/mL
same,MIC in Combination,[13]; TP2-6 combined with meropenem,25 µg/mL
same,MIC,[14]; Acinetobacter baumannii,1.56 µg/mL
same,MBC,"[14]; Acinetobacter baumannii, agent incubated at 40 °C for 1 h prior to the assay, triplicate, two experiments",1.56 µg/mL
same,MBC,"[14]; Acinetobacter baumannii, agent incubated at 60 °C for 1 h prior to the assay, triplicate, two experiments",1.56 µg/mL
same,MBC,"[14]; Acinetobacter baumannii, agent incubated at 80 °C for 1 h prior to the assay, triplicate, two experiments",3.12 µg/mL
same,MIC,"[14]; Acinetobacter baumannii, agent incubated at 80 °C for 1 h prior to the assay, triplicate, two experiments, read-out: MIC",3.12 µg/mL
same,MBC,"[14]; Acinetobacter baumannii, agent incubated at 100 °C for 1 h prior to the assay, triplicate, two experiments",50 µg/mL
same,MIC,"[14]; Acinetobacter baumannii, agent incubated at 100 °C for 1 h prior to the assay, triplicate, two experiments, read-out: MIC",50 µg/mL
same,MIC,"[14]; agent incubated at 60 °C for 1 h prior to the assay, triplicate, two experiments",1.56 µg/mL
same,MBC,[15]; [31],> 100 µg/mL
same,MIC,"[15]; Acinetobacter baumannii, media containing 50% human serum, read-out: MIC",> 100 µg/mL
same,MBC,[15]; normal media,>100 µg/mL
same,MIC,[15]; normal media,>100 µg/mL
same,MBC,[16]; media containing 5% lung surfactant,1.56 µg/mL
same,MIC,"[16]; Acinetobacter baumannii, 10591",1.56 µg/mL
same,MBC,[16]; [31],1.56 µg/mL
same,biofilm rupture,[17],nonsignificant biofilm rupture
same,MBC,[18],> 100 µg/mL
same,MIC,[18],100 µg/mL
same,MBC,[19],> 100 µg/mL
same,MIC,[19],> 100 µg/mL
same,MBC,[20],50 to 100 µg/mL
same,MIC,[20],50 to 100 µg/mL
same,MBC,[21],> 100 µg/mL
same,MIC,[21],> 100 µg/mL
same,MBC,[22],50 µg/mL
same,MIC,[22],50 µg/mL
same,MBC,[23],50 µg/mL
same,MIC,[23],50 µg/mL
same,MBC,[24],12.5 µg/mL
same,MBC,[25],25 µg/mL
same,MIC,[25],25 µg/mL
same,MBC,[26],> 100 µg/mL
same,MIC,[26],> 100 µg/mL
same,MBC,[27],50 to 100 µg/mL
same,MIC,[27],50 to 100 µg/mL
same,MBC,[28],100 µg/mL
same,MIC,[28],50 µg/mL
"GECIWDAIFHGAKHFLHRLVNP [TP2, tilapia piscidin 2]",antimicrobial activity,[29],without antimicrobial activity
same,net positive charge,[29],negligible or no net positive charge
